Values quoted from earlier work, collected in patent US9655905B2, “Treatment of sickle cell disease” (KING ABDULLAH UNIVERSITY OF SCIENCE AND TECHNOLOGY, priority 2011, dated 2017).

Experiments:
[1] = system: eNOS; conditions: for Effect on eNOS: Table 6, inhibitor of endothelial cell activation, down in SCD
[2] = system: SELE; conditions: for Effect on SELE: Table 6, adhesion, up in SCD
[3] = system: ROS
[4] = system: NFkB; conditions: for Effect on NFkB: Table 6, activator of endothelial cells, up in SCD
[5] = system: IL-6; conditions: for Effect on IL-6: Table 6, chemokine/inflammatory, up in SCD
[6] = system: cGMP; conditions: Dai, et al 2011
[7] = system: FN1; conditions: for Effect on FN1: Table 6, coagulatory, up in SCD
[8] = system: TNFα; conditions: for Effect on TNFα: Table 6, cytokine/inflammatory, up in SCD; for levels of TNF-α: cited literature
[9] = system: ET-1; conditions: for Effect on ET-1: Table 6, vasoconstrictor, up in SCD; for levels of vasoconstrictor ET-1: cited literature
[10] = system: leukocyte-endothelial adhesion; conditions: colonic UR injury (Santen, et al 2010)
[11] = system: NO; conditions: for Effect on NO: Table 6, vasodilator, down in SCD
[12] = system: ICAM-1; conditions: for Effect on ICAM-1: Table 6, adhesion, up in SCD
[13] = system: HIF-1
[14] = system: TF
[15] = system: IL-10; conditions: for Effect on IL-10: Table 6, anti-inflammatory; for levels of anti-inflammatory mediator IL-10: cited literature
[16] = system: SELP; conditions: for Effect on SELP: Table 6, adhesion, up in SCD
[17] = system: IL-1β; conditions: for Effect on IL-1β: Table 6, cytokine/inflammatory, up in SCD
[18] = system: K562 reporter cell line
[19] = system: (G) gamma-globin promoter
[20] = system: ET-3; design: key to Effect on ET-3: increases protein levels; decrease: reduces protein levels; exert no effect on protein levels; not known: has not been experimentally determined
[21] = system: IL-8; design: key to Effect on IL-8: increases protein levels; decrease: reduces protein levels; exert no effect on protein levels; not known: has not been experimentally determined
[22] = system: erythrocyte-endothelial adhesion; conditions: HU therapy (Gambero, et al 2007)
[23] = system: GM-CSF; design: key to Effect on GM-CSF: increases protein levels; decrease: reduces protein levels; exert no effect on protein levels; not known: has not been experimentally determined
[24] = system: VLA-4; design: key to Effect on VLA-4: increases protein levels; decrease: reduces protein levels; exert no effect on protein levels; not known: has not been experimentally determined
[25] = system: VCAM-1; design: key to Effect on VCAM-1: increases protein levels; decrease: reduces protein levels; exert no effect on protein levels; not known: has not been experimentally determined
[26] = system: fetal hemoglobin (HbF); conditions: via NO-cGMP signaling pathway (Cokic, et al 2003)
[27] = system: CD36; design: key to Effect on CD36: increases protein levels; decrease: reduces protein levels; exert no effect on protein levels; not known: has not been experimentally determined
[28] = system: IL-3; design: key: increases protein levels; decrease: reduces protein levels; exert no effect on protein levels; not known: has not been experimentally determined; conditions: Table 6; inflammatory, up in SCD
[29] = colonic UR injury (Santen, et al 2010)
[30] = Table 6, activator of endothelial cells, up in SCD
[31] = HU in SCD, endothelial adhesion molecule
[32] = on the surface of erythrocytes, HU therapy

In the case of `O=S(=O)(c1cccc2c(O)nccc12)N1CCCNCC1` [Hydroxyfasudil, 5-(1,4-diazepane-1-sulfonyl)isoquinolin-1-ol], the “levels of eNOS” value ([1]; Dai, et al 2011) is listed as “increased”, the “Effect on eNOS” value [1] is listed as “increase” and the “Effect on SELE” value [2] is listed as “decrease”. The SELE [2, 29] was “reduce”, the “Effect on ROS” value ([3]; Table 6, IR injury-related molecule, up in SCD) was “decrease” and the “injury-induced generation of ROS” value ([3]; UR injury (Shiotani, et al 2004)) was “suppress”. For the same compound, the NFκB ([4]; He, et al 2008) was “reduce”, the “Effect on NFkB” value [4] was “decrease” and the “Effect on IL-6” value [5] was “decrease”. For the same compound, the IL-6 levels ([5]; after hypoxia/reoxygenation injury in brain tissue (Ding, et al 2010)) was “reduce”, the “levels of cGMP” value [6] was “increased” and the “Effect on FN1” value [7] was “decrease”. For the same compound, the “Effect on TNFα” value [8] was “decrease”, the “levels of TNF-α” value [8] was “decrease” and the “Effect on ET-1” value [9] was “decrease”. For the same compound, the “levels of vasoconstrictor ET-1” value [9] was “suppress”, the leukocyte-endothelial adhesion [10] was “diminishing” and the “levels of NO” value ([11]; Dai, et al 2011) was “increased”. The “Effect on NO” value [11] was “increase”, the “Effect on ICAM-1” value [12] was “decrease” and the ICAM-1 [12, 29] was “reduce”. The ICAM-1 expression ([12]; diabetes-induced microvascular damage (Arita, et al 2009)) was “reduce”, the “Effect on HIF-1” value [13, 30] was “decrease” and the HIF-1α ([13]; Takata, et al 2008) was “reduce”. The TF ([14]; Satoh, et al 2010) was “reduce”, the “Effect on TF” value [14, 30] was “decrease” and the “Effect on IL-10” value [15] was “increase”. The “levels of anti-inflammatory mediator IL-10” value [15] was “increase”, the “Effect on SELP” value [16] was “decrease” and the SELP [16, 29] was “reduce”. For the same compound, the IL-1β ([17]; He, et al 2008) was “decrease” and the “Effect on IL-1β” value [17] was “decrease”.

For `C=C1CC[C@H]2C(C)(C)CCC[C@]2(C)[C@H]1C/C=C1/C(=O)OC[C@@H]1O` [Isocoronarin D], the cell viability [18] is listed as 75-80%, the “toxicity associated with HbF induction” value [18] is listed as “little to no” and the “production of HbF” value [19] is listed as “induces”. The “EGFP inducing potency or HbF production” value ([19]; rank among seven diterpenes (Chokchaisiri, et al 2010)) was “highest”.

For `NC(=O)NO` [HU, Hydroxyurea], the “Effect on eNOS” value [1] is given as “increase”, the “levels of vasoconstrictor ET-3” value ([20]; HU in SCD (Makis, et al 2004)) is given as “decreasing” and the “Effect on ET-3” value ([20]; Table 6, vasoconstrictor, up in SCD) is given as “decrease”. For the same compound, the “expression of IL-8” value ([21]; HU (Laurance, et al 2010)) was “increases”, the “levels of IL-8” value ([21]; HU therapy (Lanaro, et al 2009)) was “no effect” and the “Effect on IL-8” value ([21]; Table 6, chemokine/inflammatory, up in SCD) was “increase”. The erythrocyte-endothelial adhesion [22] was “reduce”, the “levels of sSELE” value [2, 31] was “decreasing” and the “Effect on SELE” value [2] was “decrease”. The “levels of GM-CSF” value ([23]; HU therapy (Conran, et al 2007)) was “decreased”, the “Effect on GM-CSF” value ([23]; Table 6, inflammatory, up in SCD) was “decrease” and the “Effect on NFkB” value [4] was “decrease”. For the same compound, the “expression of IL-6” value ([5]; HU (Laurance, et al 2010)) was “increases”, the “Effect on IL-6” value [5] was “increase” and the “Effect on VLA-4” value ([24]; Table 6, adhesion, up in SCD) was “decrease”. The “gene and protein expression of VLA-4” value [24, 32] was “reducing”, the “levels of the pro-coagulatory molecule fibronectin” value ([7]; HU (Saleh, et al 1999)) was “no demonstrable effects” and the “Effect on FN1” value [7] was “no effect”. For the same compound, the “Effect on TNFα” value [8] was “decrease”, the “levels of TNF-α” value [8] was “decreased” and the “Effect on ET-1” value [9] was “decrease”. The “levels of vasoconstrictor ET-1” value [9] was “decreasing”, the “levels of sVCAM-1” value [25, 31] was “decreasing” and the “Effect on VCAM-1” value ([25]; Table 6, adhesion, up in SCD) was “decrease”. The “production of fetal hemoglobin (HbF)-containing erythrocytes” value [26] was “increasing”, the NO bioavailability ([11]; HU treatment of SCD (Conran, et al 2004)) was “increased” and the “Effect on NO” value [11] was “increase”. The “levels of sICAM-1” value [12, 31] was “decreasing”, the “Effect on ICAM-1” value [12] was “decrease” and the “Effect on IL-10” value [15] was “increase”. The “levels of anti-inflammatory mediator IL-10” value [15] was “increase”, the “Effect on CD36” value ([27]; Table 6, adhesion, up in SCD) was “decrease” and the “gene and protein expression of CD36” value [27, 32] was “reducing”. The “levels of sSELP” value [16, 31] was “decreasing”, the “Effect on SELP” value [16] was “decrease” and the “Effect on IL-1β” value [17] was “increase”. The “Effect on IL-3” value [28] was “increase”.
